Assay results as given in US10774046B2, “Inhibitors for the treatment of cancer and related methods” (UNIVERSITY OF LOUISVILLE RESEARCH FOUNDATION, INC., priority 2017, dated 2020).

Legend:
[1] = system: H460 cells; assay: glycolysis assay (3H2O from 5-[3H]glucose); format: cell-based, human
Experimental: H460 cells were exposed to the indicated concentrations of MPN-2 and glycolysis production was examined. Cells growing in 6-well plates were incubated in 500 μl of complete medium containing 1 μCi of 5-[^3H]glucose per well for 60 min in 5% CO2 at 37° C. Media was collected, ^3H2O formed via glycolysis from the 5-[^3H]glucose measured and counts normalized as previously described. For example, the medium was then collected and centrifuged to pellet any suspended cells. To separate the ^3H2O formed via glycolysis from the 5-[^3H]glucose added to the medium, an evaporation technique in a sealed system was utilized. Briefly, 150 μl aliquots of medium were added to open tubes that were placed upright inside scintillation vials containing 1 ml of H2O. The scintillation vials were sealed, and the ^3H2O produced by glycolysis through enolase and released to the medium was allowed to equilibrate with the H2O in the outer vial for 48 h at 37° C. The amounts of ^3H2O that had diffused into the surrounding H2O was measured on a Tri-Carb 2910 liquid scintillation analyzer (Perkin Elmer) and compared with ^3H2O and 5-[^3H]glucose standards. Protein concentration was determined using the BCA assay and counts were normalized to protein concentration. All data are expressed as the mean±SD of three experiments. Statistical significance was assessed by the two-sample t test (independent variable).
Method: To examine glycolysis, H460 cells growing in 6-well plates were incubated in 500 μl of complete medium containing 1 μCi of 5-[^3H] glucose per well for 60 min in 5% CO2 at 37° C. The medium was then collected and centrifuged to pellet any suspended cells. To separate the ^3H2O formed via glycolysis from the 5-[^3H]glucose added to the medium, an evaporation technique in a sealed system was utilized. Briefly, 150 μl aliquots of medium were added to open tubes that were placed upright inside scintillation vials containing 1 ml of H2O. The scintillation vials were sealed, and the ^3H2O produced by glycolysis through enolase and released to the medium was allowed to equilibrate with the H2O in the outer vial for 48 h at 37° C. The amounts of ^3H2O that had diffused into the surrounding H2O was measured on a Tri-Carb 2910 liquid scintillation analyzer (Perkin Elmer) and compared with ^3H2O and 5-[^3H]glucose standards. Protein concentration was determined using the BCA assay and counts were normalized to protein concentration (previously described in CHESNEY et al. Oncotarget. 2014; 5(16):6670-6686.)

[2] = system: Lewis lung carcinoma (LLC) tumors; assay: Lewis lung carcinoma tumor growth in syngeneic mice; format: in vivo, C57BL/6 mice
Experimental: For xenograft studies, exponentially growing LLC or H460 cells were detached, washed and resuspended in PBS. Female C57BL/6 mice (Jackson Labs) were injected with LLC cells (n=10/group, s.c., 1×10^6 cells) and female BALB/c athymic mice (Jackson Labs) with H460 cells (n=10/group, s.c, 5×10^6 cells). Tumor masses were determined in a blinded fashion with Vernier calipers using the formula: mass (mg)=(width, mm)^2×(length, mm)/2 as previously described. When tumor masses were 150-200 mg, mice were randomized to daily intraperitoneal DMSO or 5MPN at the indicated dose in 50 μL DMSO. Tumor measurements and body weights were followed daily. All data are expressed as the mean±SD of two experiments. Statistical significance was assessed by the two-sample t test (independent variable).
Method: C57BL/6 mice (Charles River) were implanted with 1×10^6 Lewis lung carcinoma cells subcutaneously and, after tumors developed, were followed by caliper measurements daily to quantify tumor mass using the formula: tumor mass=(length×width^2)/2. When tumors were ˜150-200 mg, mice were randomized to daily oral DMSO±Formula (VIII) (n=10/group) at 40 mg/kg in 50 μL DMSO and tumor growth followed×9 days. (* signifies statistical significance)

[3] = system: H460 cells; assay: intracellular ATP measurement; format: cell-based, human
Experimental: H460 cells were exposed to the indicated concentrations of MPN-2 and ATP production was examined. Cells were lysed and intracellular ATP determined as described previously. For example, cells were washed (while still adherent) with cold PBS 1×, lysed with Passive Lysis Buffer (1×; Molecular Probes, Invitrogen) added directly to the plates, and immediately harvested by scraping. The lysates were flash frozen (to −80° C.) and thawed (to 37° C.) once to accomplish complete lysis and then centrifuged (at 4° C.) for 30 seconds to clear the lysates. Intracellular ATP levels were determined using a bioluminescence assay (Molecular Probes), utilizing recombinant firefly luciferase and its substrate, D-luciferin. The luminescence was read in a TD-20/20 luminometer (Turner Designs) at 560 nm. The ATP values were calculated using an ATP standard curve. The protein concentrations of the lysates were estimated using the BCA assay (Pierce Biotechnology) and ATP was expressed as pmol/μg protein. All data are expressed as the mean±SD of three experiments. Statistical significance was assessed by the two-sample t test (independent variable).

[4] = system: LLC tumors; assay: tumor glucose uptake by FDG micro-PET; format: in vivo, C57BL/6 mice
Experimental: At the end of the experiment, animals were euthanized, tumors removed and sections fixed in 10% formaldehyde for immunohistochemistry or snap-frozen in liquid nitrogen for analyses. Subsets of tumor-bearing mice (n=3) were injected i.p. with 2-[^18F]-fluoro-2-deoxyglucose (FDG, 150 μCi, 100 μl) and imaged by micro-positron emission tomography as previously described. Regions of interest in the tumors and cerebellum were quantified in quadruplicate and expressed as the mean±SD of the tumor:cerebellar FDG uptake ratio. Animal experiments were approved by the University of Louisville Institutional Animal Care and Use Committee.
Method: FDG-PET was conducted on tumor-bearing mice to determine acute effects of Formula (VIII) on glucose uptake. C57BL/6 mice (Charles River) with subcutaneous Lewis lung carcinoma tumors were injected intraperitoneally with 100 μCi of ^18F-fluoro-2-deoxy-glucose under isoflurane anesthesia and subjected to a 15-minute static scan 45 minutes after tracer injection at baseline. […] Tumor/cerebellum ROI (regions of interest) were quantified, representative sagittal cuts from mice are shown with arrows showing the tumors on the animals. (* signifies statistical significance).

[5] = H460, indicated concentrations of MPN-2, 48 hours

## 5-[(8-methoxy-2-methylquinolin-1-ium-4-yl)amino]pentyl nitrate [MPN-2]
[1]; [5]
  intracellular glycolysis: decreased
[2]; intraperitoneal injection 10 mg/kg daily, eleven days
  tumor growth: suppressed the growth
[3]; [5]
  ATP production: decreased

## COc1cccc2c(NCCCCCO[N+](=O)[O-])ccnc12 [5MPN, 5-[(8-methoxyquinolin-4-yl)amino]pentyl nitrate]
[1]; H460, 10 μM 5MPN, 6-72 hours
  glycolysis: reduced
[4]; 5MPN 120 mg/kg by gavage, once
  2-[18F]-fluoro-2-deoxyglucose uptake: reduction
[2]; 5MPN 120 mg/kg oral daily, ten days
  tumor growth: suppressed the growth
[2]; LLC-bearing mice, 120 mg/kg oral daily
  body weight: without affecting body weight
[3]; H460, 10 μM 5MPN, 6-72 hours
  ATP: reduced

## COc1cccc2c(NCCCCCNC(=O)C(F)(F)F)ccnc12 [Formula (VIII), 2,2,2-trifluoro-N-(5-((8-methoxyquinolin-4-yl)amino)pentyl)acetamide]
[4]; 40 mg/kg PO x1, PET after 60 minutes
  tumor FDG uptake: decrease in tumor FDG uptake compared with vehicle
[2]; oral 40 mg/kg daily, 9 days
  established tumor growth: decreased established tumor growth
